Assay results reported in patent US20250082595A1, “METHODS AND COMPOSITIONS FOR TREATING PARKINSON’S DISEASE” (priority 2022, published 2025).
Where “and” joins values, the source holds several entries; their conditions need not be identical. Equal values may be shown once.

Key:
[1] = Plasma exposure (AUC) of LD and CD after SC infusion, oral IR tablet, and SC + oral coadministration of LD/CD; assay type: in vivo
Excerpt: A test was run in order to assess the plasma exposure of levodopa (LD) following the coadministration of LD and carbidopa (CD) in both subcutaneous (SC) and oral administrations. Accordingly, results obtained from a combined SC+oral administration were compared to results obtained from SC administration alone and from oral administration alone. An additive plasma exposure and PK profile was expected, i.e., it was expected that the SC+oral coadministration would provide results equal to the additive results of the SC and oral administrations, when each was administered separately.
16 healthy subjects (18-50 years) were treated in a crossover manner, i.e., sequentially, with a washout period of 6 days between the following two treatments: • Treatment A: A total dose of 180/22.5 mg LD/CD (formulation A) was administered by SC infusion over the course of 8 hours, at a steady infusion rate. • Treatment B: An immediate release (IR) tablet of 100/25 mg LD/CD was administered orally at time 0 h.
Following a 32 hour washout period, the same 16 healthy subjects were administered with LC/CD both orally and subcutaneously according to the following treatment: • Treatment C: A dose of 153.6/19.2 LD/CD (formulation A) was administered by SC infusion over the course of 8 hours, at a steady infusion rate, combined with a single co-administration of an oral IR LD/CD 100/25 mg tablet, 4 hours after the initiation of the infusion. Total LD/CD dose: 253.6/44.2 mg.
The normalized AUC0-8 of LD and CD of Treatment C, resulting from the combined SC and oral treatment, as described above, was calculated and compared to the sum of the normalized LD and CD AUCs obtained from Treatment A (AUC0-8 resulting from 8 h SC infusion) and Treatment B (AUC0-4 resulting from one IR oral tablet).

[2] = Procedure: The objective of this study was to determine the pharmacokinetics (PK) of levodopa (LD) in domestic pigs following continuous subcutaneous (SC) infusion of a levodopa prodrug, exemplified using LD-Tyr, administered concomitantly with oral Levodopa.
Table 6 provides the LD-Tyr formulation tested in this study: […]
The study consisted of 3 dosing sessions in which 5 female pigs (Swine/Landrace×large White, ˜40-50 kg each) were treated with the LD-Tyr solution of Table 6 and/or Sinemet JR oral tablets (CD/LD 25/100 mg tablet) in a cross-over design with up to 4-day washout period between dosing sessions, as detailed in the following tables:
As presented in Tables 7 and 8 above, the study included the following three test groups: • G1—received only SC LD-Tyr (600 mg total daily dose); • G2—received only oral LD (300 mg total daily dose); and • G3—received both SC LD-Tyr (600 mg total daily dose) and oral LD (200 mg total daily dose).
Blood samples for the determination of LD-Tyr (in groups 1 and 3), as well as LD and CD plasma levels (in all groups) were collected from the pigs at the following timepoints: • 0 (pre-dose), 30 min, 1 h, 2 h, 3 h, 4 h, 4.5 h, 5 h, 6 h, 7 h, 8 h, 8.5 h, 9 h, 10 h, 11 h, 13 h, 15 h 18 h following treatment initiation. Tablets were administered before blood collection (time 0, 4 and 8 h).
Plasma samples were analyzed for concentration of LD-Tyr (groups 1 and 3), as well as LD and CD (for all groups) using a qualified LC-MS/MS analytical method.
PK parameters (at least Cmax, tmax, t1/2, AUC) for LD-Tyr, LD and CD were calculated by noncompartmental methods using appropriate software (e.g. Phoenix® WinNonlin®). Individual and mean was calculated for quantitative parameters.
The LD exposure obtained from the SC infusion is considered to be the baseline.

[3] = geomean of group, Treatment A SC 8 h, normalized × 0.853
[4] = geomean of group, oral IR tablet 100/25 mg LD/CD

N[C@@H](Cc1ccc(O)c(O)c1)C(=O)O [LD, L-3,4-dihydroxyphenylalanine]
LD: 4. Treatment C AUC (0-8) [Observed], Geomean Group ([1]; geomean of group, SC 153.6/19.2 LD/CD over 8 h + oral 100/25 mg tablet at 4 h): 4817
LD: 1. Treatment A AUC (0-8) × 0.853, Geomean Group [1, 3]: 2412
LD: 2. Treatment B AUC (0-4), Geomean Group [1, 4]: 1458
LD: 3. Combined 1 + 2 [Estimated], Geomean Group ([1]; geomean of group, sum A + B): 3870
LD: Observed (C) vs. Additive Ratio, Geomean Individual ([1]; geomean of individual ratios): 1.240
LD: Observed (C) vs. Additive Ratio, Geomean Group (mean ratio) ([1]; group geomean, Treatment C vs. A+B): 1.245
LD: 1. Treatment A AUC (0-8) × 0.853 ([1]; individual subject (ID), Treatment A: 180/22.5 mg LD/CD formulation A, SC infusion over 8 h, AUC × 0.853 to equal SC dose of Treatment C): 2236 and 2266 and 2218
LD: 4. Treatment C AUC (0-8) [Observed] ([1]; individual subject (ID), Treatment C: 153.6/19.2 LD/CD formulation A SC over 8 h + oral IR LD/CD 100/25 mg tablet at 4 h): 6325 and 5031 and 5059 and 4610 and 3961
LD: 3. Combined 1 + 2 [Estimated] ([1]; individual subject (ID), sum of normalized Treatment A AUC and Treatment B AUC): 3087
Synergism ratio, Mean ([2]; animal 115 excluded): 1.57
Synergism ratio, Median ([2]; animal 115 excluded): 1.49
Synergism ratio (actual / predicted LD AUC of oral add-ons) ([2]; individual pig): above 1
Increase of LD plasma exposure by oral add-ons, on top of LD exposure from SC administration alone, versus predicted (average) ([2]; pigs, SC LD-Tyr/CD + oral LD/CD): over 50%

C[C@@](Cc1ccc(O)c(O)c1)(NN)C(=O)O [CD, carbidopa]
CD: 4. Treatment C AUC (0-8) [Observed], Geomean Group ([1]; geomean of group, SC + oral): 1051
CD: 1. Treatment A AUC (0-8) × 0.853, Geomean Group [1, 3]: 900
CD: 2. Treatment B AUC (0-4), Geomean Group [1, 4]: 309
CD: 3. Combined 1 + 2 [Estimated], Geomean Group ([1]; human, in vivo): 1209
CD: Observed (C) vs. Additive Ratio, Geomean Group (mean ratio) ([1]; human, in vivo): 0.869
CD: Observed (C) vs. Additive Ratio, Geomean Individual ([1]; human, in vivo): 0.866
CD: 4. Treatment C AUC (0-8) [Observed] ([1]; individual subject (ID), SC 153.6/19.2 LD/CD over 8 h + oral IR LD/CD 100/25 mg tablet at 4 h): 1086
CD: 1. Treatment A AUC (0-8) × 0.853 ([1]; individual subject (ID), Treatment A: 180/22.5 mg LD/CD formulation A, SC infusion over 8 h, AUC × 0.853): 955 and 988 and 925
CD: 2. Treatment B AUC (0-4) ([1]; individual subject (ID), oral IR tablet 100/25 mg LD/CD at 0 h): 318
